This is an account of results in US20230234942A1, “COMPOUNDS FOR TREATING HUNTINGTON'S DISEASE” (PTC Therapeutics, Inc., priority 2020, published 2023).

The assay relates to Endogenous Huntingtin Protein. The assay can be described thus: Endogenous Huntingtin Protein Assay (ELISA-based MSD electrochemiluminescence). Conditions: Table 2; MSD plates coated with MW1 (expanded polyglutamine) or MAB2166 capture antibody; "inactive" = result above the detection limit of the assay. Format: cell-based. An outline of the steps: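 MSD electrochemiluminescence sandwich ELISA: capture with MW1 (expanded polyQ) or MAB2166 at 1 µg/mL, samples incubated overnight at 4 °C. Detection by rabbit mAb #56565 then SULFO-TAG anti-rabbit antibody, each 0.25 µg/mL for 1 h at room temperature, read in buffer T on SI 6000 imager.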
`CC[C@H]1CN(c2ncc(-c3ccc(-c4cn[nH]c4F)cc3O)nn2)C[C@@H](C)N1` [Cpd 223, 2-{3-[(3S,5R)-3-ethyl-5-methylpiperazin-1-yl]-1,2,4-triazin-6-yl]-5-(5-fluoro-1H-pyrazol-4-yl)phenol] displayed a half-maximal inhibitory concentration (IC50) of 7 nM.
`CC(C)[C@H]1CN(c2ncc(-c3ccc(-c4ccc5nncn5c4)cc3O)nn2)CCN1` [Cpd 115, 2-{3-[(3S)-3-(propan-2-yl)piperazin-1-yl]-1,2,4-triazin-6-yl}-5-([1,2,4]triazolo[4,3-a]pyridin-6-yl)phenol] showed an IC50 of 180 nM.
Turning to `CC1CN(c2ncc(-c3ccc(-c4cn[nH]c4)cc3O)nn2)CCN1` (stereo not drawn) [Cpd 42, 2-[3-(3-methylpiperazin-1-yl)-1,2,4-triazin-6-yl]-5-(1H-pyrazol-4-yl)phenol], the IC50 was 111 nM.
Regarding `Cc1cn2nc(-c3ccc(-c4cnc(N5CCN(C)CC5)nn4)c(O)c3)cc(C)c2n1` [Cpd 104, 5-(2,8-dimethylimidazo[1,2-b]pyridazin-6-yl)-2-[3-(4-methylpiperazin-1-yl)-1,2,4-triazin-6-yl]phenol], the half-inhibitory concentration (IC50) is 14.6 nM.
On to `[2H]C([2H])([2H])n1cc(-c2cc(O)c(-c3cnc(N4CCN[C@@H](C(C)(C)C)C4)nn3)cc2F)cn1` [Cpd 156, 2-{3-[(3S)-3-tert-butylpiperazin-1-yl]-1,2,4-triazin-6-yl}-4-fluoro-5-[1-(^2H3)methyl-1H-pyrazol-4-yl]phenol], for which 12.5 nM corresponded to half-maximal inhibition (IC50).
The same measure for `CC1CN(c2ncc(-c3ccc(-c4cc(F)c5nn(C)cc5c4)cc3O)nn2)CCN1` (stereo not drawn) [Cpd 67, 5-(7-fluoro-2-methyl-2H-indazol-5-yl)-2-[3-(3-methylpiperazin-1-yl)-1,2,4-triazin-6-yl]phenol]: 2.1 nM; for `Cc1ccc2c(ccn2-c2ccc(-c3cnc(N4CCN[C@@H](C(C)C)C4)nn3)c(O)c2)n1` [Cpd 159, 5-(5-methyl-1H-pyrrolo[3,2-b]pyridin-1-yl)-2-{3-[(3S)-3-(propan-2-yl)piperazin-1-yl]-1,2,4-triazin-6-yl}phenol]: 62.2 nM.
Molecule `CC[C@@H]1CN(c2ncc(-c3ccc(-c4cn[nH]c4F)cc3O)nn2)C[C@H](C)N1` [Cpd 218, 2-{3-[(3R,5S)-3-ethyl-5-methylpiperazin-1-yl]-1,2,4-triazin-6-yl}-5-(5-fluoro-1H-pyrazol-4-yl)phenol] showed an IC50 of 73.8 nM.
The molecule `Cc1cnn(-c2ccc(-c3cnc(N4CCN[C@H](C5CC5)C4)nn3)c(O)c2)n1` [Cpd 183, 2-{3-[(3R)-3-cyclopropylpiperazin-1-yl]-1,2,4-triazin-6-yl}-5-(4-methyl-2H-1,2,3-triazol-2-yl)phenol] had a concentration for half-maximal inhibition (IC50) of 18.8 nM.
The same measure for `CC[C@@H]1CN(c2ncc(-c3ccc(-c4cc(OC)ncn4)cc3O)nn2)C[C@H](C)N1` [Cpd 228, 2-{3-[(3R,5S)-3-ethyl-5-methylpiperazin-1-yl]-1,2,4-triazin-6-yl}-5-(6-methoxypyrimidin-4-yl)phenol]: 73.1 nM; for `Cc1cn2nc(-c3ccc(-c4cnc(N5CCN[C@H](C)C5)nn4)c(O)c3)cc(C)c2n1` [Cpd 98, 5-(2,8-dimethylimidazo[1,2-b]pyridazin-6-yl)-2-{3-[(3R)-3-methylpiperazin-1-yl]-1,2,4-triazin-6-yl]phenol]: 10.2 nM; for `C[C@@H]1CN(c2ncc(-c3ccc(-c4cn[nH]c4)cc3O)nn2)C[C@H](C2CC2)N1` [Cpd 225, 2-{3-[(3S,5R)-3-cyclopropyl-5-methylpiperazin-1-yl]-1,2,4-triazin-6-yl}-5-(1H-pyrazol-4-yl)phenol]: 13.4 nM.
With `C=CC1CN(c2ncc(-c3ccc(-c4cn[nH]c4)cc3O)nn2)CCN1` (stereo not drawn) [Cpd 38, 2-[3-(3-ethenylpiperazin-1-yl)-1,2,4-triazin-6-yl]-5-(1H-pyrazol-4-yl)phenol], the IC50 came to 56.2 nM.
With `Cn1cc2cc(-c3cnc(-c4cnc(N5CCN[C@@H](C6CC6)C5)nn4)c(O)c3)cc(F)c2n1` [Cpd 181, 2-{3-[(3S)-3-cyclopropylpiperazin-1-yl]-1,2,4-triazin-6-yl}-5-(7-fluoro-2-methyl-2H-indazol-5-yl)pyridin-3-ol], 6.2 nM corresponded to half-maximal inhibition (IC50).
As for `Cc1cn2cc(-c3ccc(-c4cnc(N5CCN[C@@H](C(C)C)C5)nn4)c(O)c3)cc(C(F)(F)F)c2n1` [Cpd 139, 5-[2-methyl-8-(trilluoromethyl)imidazo[1,2-a]pyridin-6-yl]-2-{3-[(3S)-3-(propan-2-yl)piperazin-1-yl]-1,2,4-triazin-6-yl}phenol], 18 nM corresponded to half-maximal inhibition (IC50).
Regarding `CC[C@H]1CN(c2ncc(-c3ccc(-c4ccnc(OC)c4)cc3O)nn2)C[C@@H](C)N1` (single isomer, unassigned) [Cpd 266, 2-{3-[(3S,5R)-3-ethyl-5-methylpiperazin-1-yl]-1,2,4-triazin-6-yl}-5-(2-methoxypyridin-4-yl)phenol or 2-{3-[(3R,5S)-3-ethyl-5-methylpiperazin-1-yl]-1,2,4-triazin-6-yl}-5-(2-methoxypyridin-4-yl)phenol], the midpoint of inhibition, the IC50, lay at 19.4 nM.
In the case of `C[C@@H]1CN(c2ncc(-c3ccc(-c4cn[nH]c4)cc3O)nn2)C[C@H](C(C)(C)C)N1` [Cpd 247, 2-{3-[(3S,5R)-3-tert-butyl-5-methylpiperazin-1-yl]-1,2,4-triazin-6-yl]-5-(1H-pyrazol-4-yl)phenol], the concentration for half-maximal inhibition (IC50) is 201 nM.
For `[2H]C([2H])([2H])Oc1cc(-c2ccc(-c3cnc(N4CCN(C)C(C(C)(C)O)C4)nn3)c(O)c2)ncn1` (stereo not drawn) [Cpd 26, 2-{3-[3-(2-hydroxypropan-2-yl)-4-methylpiperazin-1-yl]-1,2,4-triazin-6-yl}-5-{6-[(^2H3)methyloxy]pyrimidin-4-yl}phenol] the value was 24.9 nM; for `C[C@@H]1CN(c2ncc(-c3ccc(-c4c[nH]nc4F)cc3O)nn2)C[C@H](C2CCC2)N1` [Cpd 236, 2-{3-[(3S,5R)-3-cyclobutyl-5-methylpiperazin-1-yl]-1,2,4-triazin-6-yl}-5-(3-fluoro-1H-pyrazol-4-yl)phenol], 9.5 nM; for `CC(C)[C@H]1CN(c2ncc(-c3ccc(-c4ccns4)cc3O)nn2)CCN1` [Cpd 270, 2-{3-[(3S)-3-(propan-2-yl)piperazin-1-yl]-1,2,4-triazin-6-yl}-5-(1,2-thiazol-5-yl)phenol], 29.2 nM.
Take `CC(C)[C@H]1CN(c2ncc(-c3ccc(-c4nc(C#N)cs4)cc3O)nn2)CCN1` [Cpd 273, 2-(3-hydroxy-4-{3-[(3S)-3-(propan-2-yl)piperazin-1-yl]-1,2,4-triazin-6-yl}phenyl)-1,3-thiazole-4-carbonitrile]: inhibition was half-maximal at 646 nM (IC50).
Turning to `CC(C)[C@H]1CN(c2ncc(-c3ccc(-c4cn(C)nn4)cc3O)nn2)CCN1` [Cpd 260, 5-(1-methyl-1H-1,2,3-triazol-4-yl)-2-{3-[(3S)-3-(propan-2-yl)piperazin-1-yl]-1,2,4-triazin-6-yl}phenol], the IC50 was 417 nM.
In the case of `CC(C)(C)[C@H]1CN(c2ncc(-c3ccc(-c4cn[nH]c4)cc3O)nn2)CCN1` [Cpd 16, 2-{3-[(3S)-3-tert-butylpiperazin-1-yl]-1,2,4-triazin-6-yl}-5-(1H-pyrazol-4-yl)phenol], inhibition was half-maximal at 13.2 nM (IC50).
Molecule `Cc1cnsc1-c1ccc(-c2cnc(N3CCN[C@@H](C(C)C)C3)nn2)c(O)c1` [Cpd 253, 5-(4-methyl-1,2-thiazol-5-yl)-2-{3-[(3S)-3-(propan-2-yl)piperazin-1-yl]-1,2,4-triazin-6-yl}phenol] showed a half-maximal inhibitory concentration (IC50) of 376 nM.
